Results: US11573241B2, “Total cellular iron as a marker of cancer stem cells and uses thereof” (Institut National de la Sante et de la Recherche Medicale …, priority 2016, dated 2023)
Entries after “also recorded” stand apart in the source; their conditions may differ.

Assays:
HMLER CD24^low cells = test: Lysosomal membrane permeabilization assay; assay type: cell-based, human; conditions: 48 h
Experimental: Lysosomal membrane permeabilization assay. Lysosomal membrane permeabilization (LMP) was assessed by monitoring the release of FITC-Dextran (FD10S, 10 kDa, Sigma) from lysosomes. In brief, cells were incubated with 1 mg/mL FITC-Dextran for 2 h at 37° C. Cells were washed, chased with culture medium for 2 h and treated as indicated for 48 h or with CQ (positive control) for 3 h. Cells were then fixed with 2% formaldehyde/PBS, washed with PBS, mounted and acquired with a 60×APO TIRF oil immersion objective of Nipkow Spinning Disk confocal system.

[1] = system: cells from treated PDX 1 and 2; test: Limiting dilution assay, tumor-seeding capacity (ELDA); assay type: in vivo, NOD/SCID mice; conditions: re-implantation into secondary mice
From the text: Limiting dilution assay. Cells from 4-week treated mice were re-implanted into one to four secondary NOD/SCID mice with injection of 10, 50, 500 or 5000 cells for each treated tumor to functionally evaluate the proportion of residual CSCs in each treatment group (Unt., Doc, Sal, AM5) for the PDX 1 and 2. Each mouse that developed a tumor reaching a size of 10 mm was considered as a tumor-bearing mouse.
Estimation of number of CSCs in vivo. The number of mammary gland outgrowths obtained in a fat pad after cell re-implantation is currently used to evaluate the number of stem cells able to repopulate this fat pad. It is based on self-renewal and differentiation abilities, two hallmarks of stem cells. In the same manner, estimation of the number of CSCs can be obtained from tumor outgrowth data collected after limited dilution re-implantation of each group of treatments, based on tumor-initiating capacities of CSCs. For calculation, an online tool is available using Extreme Limiting Dilution Analysis (ELDA) (http://bioinf.wehi.edu.au/software/elda/) for limiting dilution analysis based on the Poisson single-hit model according to the number of outgrowths observed and the number of pat pad re-implanted for each cell dilution.

iCSCA2 cells = test: Immunoblotting of iron homeostasis regulatory proteins; assay type: cell-based
Experimental: Immunoblotting. Cells were treated as indicated, then washed twice with PBS and lysed with 2× Laemmli buffer. Cell extracts were heated at 95° C. for 5 min, sheared through a 26-gauge needle and quantified with a Nanodrop 2000 (Thermo Scientific). Protein lysates (˜100 μg) were resolved by SDS-PAGE electrophoresis and transferred onto PVDF membranes (Amersham). Membranes were blocked with 5% BSA, 0.1% Tween-20/TBS for 1 h. The blots were then probed with the relevant primary antibodies in 5% BSA, 0.1% Tween-20/TBS at 4° C. overnight with gentle agitation. Membranes were washed with 0.1% Tween-20/TBS for 30 min and were incubated with secondary antibodies for 1 h at RT. Antigens were detected by ECL (Amersham). Imaging was performed using a ChemiDoc™ XRS+ System (Biorad).

iCSCL-10A2 cells = test: Annexin V/PI assay; assay type: cell-based; conditions: 0.5 μM, 72 h
Experimental: Annexin V/PI assay. Cells were treated as indicated. After treatment, cell death was quantified using Annexin V-FITC/Propidium Iodide (PI) assay according to the manufacturer's protocol (FITC Annexin V Apoptosis Detection Kit II, 556570, BD Pharmingen™) and analyzed by a LSRFortessa™ flow cytometer (BD Bioscience, San Jose, Calif.). The data were processed using Cell Quest software (BD Biosciences).

[2] = assay type: physicochemical
From the text: FIG. 1. Salinomycin and AM5 sequester iron in lysosomes and trigger ferritin degradation. a, Chemical strategy to visualize small molecules in cells. b, Fluorescence microscopy images of U2OS cells showing the subcellular localization of labeled Sal derivatives AM4, AM5, and AM9. Lysotracker Deep Red stains the lysosomes and 4′,6-diamidino-2-phenylindole (DAPI) stains nuclear DNA. Scale bar, 10 μm. Zoom corresponds to ×6. c, Live cell fluorescence microscopy images showing the subcellular localization of iron(II) using the fluorogenic reduction of RhoNox-1 (green) in HMLER CD24^low cells treated with Sal or AM5 or AM9 (0.5 μM) for 48 h. Lysotracker deep red stains the lysosomes (red) and DAPI stains nuclear DNA (blue). Scale bar, 10 μm. d, Fixed cell fluorescence microscopy images showing the subcellular localization of iron(II) using the fluorogenic reduction of RhoNox-1 (green) in HMLER CD24^low cells treated with Sal or AM5 or AM9 (0.5 μM) for 48 h. e, Quantification of lysotracker-positive vesicles colocalizing with RhoNox-1 in fixed cells was carried out by means of visual inspection. At least 75 cells were counted per condition. Data represent three independent biological replicates (n=number of lysotracker vesicles). […] Spectra were recorded in CD3CN. […] For k and I, Samples prepared in CD3OD, spectra recorded at 298 K, 5 min following sample preparation (600 MHz). […]

SMILES	lysosomal membrane permeabilization (release of lysosomal dextran) (HMLER CD24^low cells)	tumor-seeding capacity of tumor cells treated in vivo [1]	levels of IRP2, TfR and ferritin (iCSCA2 cells)	form of cell death (iCSCL-10A2 cells)	stability in the presence of iron(II) over time [2]
C#CCN[C@@H]1C=C[C@]2(O[C@H]([C@@H](CC)C(=O)[C@@H](C)[C@@H](O)[C@H](C)C3O[C@@H](C(CC)C(=O)O)CC[C@@H]3C)[C@@H](C)C[C@H]2C)O[C@@]12CC[C@@](C)([C@H]1CC[C@](O)(CC)[C@H](C)O1)O2 (stereo partly shown) [AM5, Sal-Propargylamine]	induced a permeabilization of the lysosomal membrane	decreased tumor-seeding capacity; also recorded: more potent than both Sal and Doc	response characteristic of a cytosolic depletion of iron	ferroptosis	stable
CC[C@@H](C(=O)[C@@H](C)[C@@H](O)[C@H](C)[C@@H]1O[C@@H]([C@@H](CC)C(=O)O)CC[C@@H]1C)[C@H]1O[C@]2(C=C[C@@H](O)[C@]3(CC[C@@](C)([C@H]4CC[C@](O)(CC)[C@H](C)O4)O3)O2)[C@H](C)C[C@@H]1C [Sal, salinomycin, reference compound]	induced a permeabilization of the lysosomal membrane	decreased tumor-seeding capacity	response characteristic of a cytosolic depletion of iron	ferroptosis	formation of byproducts
